Literature values in patent US9308169B2, “Microspheres for active embolization” (Biosphere Medical, Inc., priority 2000, dated 2016).

Conditions: effect of the spacer / dangling cationic head of the transfection agent; general statement, no test described

Compound	transfection efficiency
CCCCCCCC/C=C\CCCCCCCC(=O)OC[C@H](COC(=O)CCC(=O)OCC[N+](C)(C)C)OC(=O)CCCCCCC/C=C\CCCCCCCC [DOSC]	best transfection efficiency
CCCCCCCC/C=C\CCCCCCCC(=O)OC[C@H](COC(=O)CCC[N+](C)(C)C)OC(=O)CCCCCCC/C=C\CCCCCCCC [DOTB]	best transfection efficiency
